Source: patent US12714681B2, “Packaged, sealed container system for stable storage of an oxygen sensitive pharmaceutical formulation” (Baxter International Inc., priority 2020, dated 2026)

Tests used:
various receptors = details: R-isomer compared with S-isomer; cited from earlier work
[1] = Exploration of parameters: stability of norepinephrine formulations in 0.9% sodium chloride pre and post terminal sterilization; type: physicochemical
Procedure: Formulation parameters, such as antioxidant concentration and solution pH, were evaluated. Lab-scale batches were prepared and filled into containers through cut corners (resealed). Containers were subsequently vacuum sealed into overpouches. All formulations were prepared in 0.9% sodium chloride. Oxygen levels were controlled by preparing samples within a glove box under N2 atmosphere. Replicates were tested pre and post sterilization. Runs were evaluated by O2 content (head space and solution), pH, concentration of analyte and related compounds, enantiomeric purity, amount of antioxidant, and “visual inspection.”
Nineteen formulations were prepared in accordance with the table above.

[2] = cited from earlier work

| Compound | affinity to various receptors / pharmaceutical activity (various receptors) | rate of epimerization to the S-isomer ([1]; higher pH values) | rate of norepinephrine oxidation ([1]; lower pH values) | solubility in acidic solutions ([2]; acidic solutions) | solubility in alcohols and ethers ([2]; alcohols and ethers) | solubility in water ([2]; water) |
| --- | --- | --- | --- | --- | --- | --- |
| NC[C@@H](O)c1ccc(O)c(O)c1 (single isomer, unassigned) [S-isomer] | negligible pharmaceutical activity | – | – | – | – | – |
| NC[C@H](O)c1ccc(O)c(O)c1 (single isomer, unassigned) [R-isomer] | higher affinity | – | – | – | – | – |
| NC[C@H](O)c1ccc(O)c(O)c1 [norepinephrine] | – | decreased the rate of epimerization to the S-isomer | decreased the rate of norepinephrine oxidation | readily soluble | slightly soluble | sparingly soluble |
